Data set [1] addresses T1, serotonin 5-HT3 receptor (Homo sapiens, UniProt P46098).
T1 construct: expressed in transfected cells; host or cells: HEK-293 cells (membrane fraction)
T1 sequence (P46098 24-478): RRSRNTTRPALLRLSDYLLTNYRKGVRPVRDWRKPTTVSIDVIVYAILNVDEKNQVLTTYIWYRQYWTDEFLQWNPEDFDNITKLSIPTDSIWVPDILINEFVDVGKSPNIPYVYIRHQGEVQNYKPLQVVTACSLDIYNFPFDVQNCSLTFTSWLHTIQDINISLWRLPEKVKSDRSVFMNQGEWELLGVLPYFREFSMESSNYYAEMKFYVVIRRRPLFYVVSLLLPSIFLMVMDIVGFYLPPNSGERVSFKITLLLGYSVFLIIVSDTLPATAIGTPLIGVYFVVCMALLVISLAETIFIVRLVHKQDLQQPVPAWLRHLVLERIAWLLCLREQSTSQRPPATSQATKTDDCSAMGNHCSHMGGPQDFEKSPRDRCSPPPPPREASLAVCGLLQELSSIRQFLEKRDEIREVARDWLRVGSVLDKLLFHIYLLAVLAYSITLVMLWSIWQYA
The experiment in a line: Serotonin 5-HT3 receptor binding affinity ([3H]-GR-65630 binding inhibition). To be noted: 1 μM test compound, membrane fraction from HEK-293 cells; for inhibition at 1 µM: read-out: [3H]-GR65630 binding inhibition rate at 1 μM. On the procedure: Serotonin 5-HT3 receptor binding affinities of the urea derivatives of the present invention and typical compounds among known urea derivatives, N-phenyl-4-methylpiperazine-1-carboxyamide (A), N-(4,5-dichlorophenyl)-4-methylppiperazine-1-carboxyamide (B), N-(3,5-trifluoromethylphenyl)-4-methylpiperazine-1-carboxyamide (C), N-(3-fluorophenyl)-4-methylpiperazine-1-carboxyamide (D) and N-(5-chloro-2-methoxyphenyl)-(4-tert-butyloxycarbonylpiperazine)-1-carboxyamide (E), were determined by the following method, and the results are shown in Table 1. The test compounds of the present invention are mentioned with the example numbers.
According to the method of Boess et al. (Neuropharmacology, 36, 637-647, 1997), affinities were examined by using a membrane fraction obtained from HEK-293 cells and a ligand selective to the serotonin 5-HT3 receptor, [3H]-GR-65630 [3-(5-methyl-1H-imidazol-4-yl)-1-(1-methyl-1H-indol-3-yl)-1-propanone] on the basis of inhibitory actions of the test compounds on the specific binding to GR-65630 as an index.

In data set [2] the target is T2, serotonin 5-HT3 receptor (Cavia porcellus, UniProt O70212).
T2 construct: longitudinal muscle samples were prepared from the ileums of male or female Hartley guinea pigs; from tissue; host or cells: guinea pig ileum longitudinal muscle
T2 sequence (O70212 20-490): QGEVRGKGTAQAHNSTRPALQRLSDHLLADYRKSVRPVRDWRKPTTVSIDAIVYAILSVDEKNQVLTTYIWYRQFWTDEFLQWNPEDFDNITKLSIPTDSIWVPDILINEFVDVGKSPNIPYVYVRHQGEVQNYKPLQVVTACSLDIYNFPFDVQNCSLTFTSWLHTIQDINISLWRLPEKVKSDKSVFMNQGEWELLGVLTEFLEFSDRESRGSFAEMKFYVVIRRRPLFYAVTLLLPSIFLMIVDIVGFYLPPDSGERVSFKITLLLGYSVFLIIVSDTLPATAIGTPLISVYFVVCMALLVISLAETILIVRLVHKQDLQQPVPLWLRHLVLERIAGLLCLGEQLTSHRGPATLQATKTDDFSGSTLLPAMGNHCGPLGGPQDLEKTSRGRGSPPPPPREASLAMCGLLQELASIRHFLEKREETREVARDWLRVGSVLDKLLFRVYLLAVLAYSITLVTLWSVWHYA
The experiment in a line: Test for serotonin 5-HT3 receptor partially activating action (guinea pig ileum longitudinal muscle contraction). More on the design: species or system Hartley guinea pigs. To be noted: for Activating action: guinea pig ileum contraction relative to 2.6 μM serotonin 5-HT; for Antagonistic action: suppression rate of serotonin 5-HT-induced contraction, guinea pig ileum. On the procedure: The serotonin 5-HT3 receptor antagonistic action and the serotonin 5-HT3 receptor activating action of 1-(2-hydroxyethyl)-1-methyl-4-(3,5-dichlorophenylcarbamoyl)piperazinium iodide as the compound of the present invention were determined according to the method of Butler et al. (Br. J. Pharmacol, 94, 397-412, 1988).
About 30-mm longitudinal muscle samples were prepared from the ileums of male or female Hartley guinea pigs (325±25 g). Each sample was hung down in a Magnus tube filled with 10 ml of Krebs solution (pH 7.4, 32° C.) with ventilation of a mixed gas (95% O2, 5% CO2), and loaded with a tension of 1 g, and contractile responses were measured isometrically. The serotonin 5-HT3 receptor activating action of the test compound was represented in terms of a relative value obtained by comparison of the contraction obtained by adding 2.6 μM of serotonin 5-HT to the sample and the contraction of 50% or more obtained within 5 minutes as a percentage based on the maximum contraction. The serotonin 5-HT3 receptor antagonistic action of the test compound was obtained from the contraction suppression rate obtained by adding serotonin 5-HT to the sample.

Data set [3] relates to cisplatin-induced emesis in beagles. Kind of data set: Antiemetic action on cisplatin-induced emesis in dogs. The format is in vivo. To be noted: for Number of emesis 0 to 120 (minute) / Number of emesis 121 to 360 (minute) / Time of initial occurrence: 0.5 mg/kg i.v. 30 minutes before cisplatin 3 mg/kg i.v., one value per animal. On the procedure: Actions on cisplatin-induced emesis in beagles of 1-(2-hydroxyethyl)-1-methyl-4-(3,5-dichlorophenylcarbamoyl)piperazinium bromide as the compound of the present invention and 5-chloro-2-(1-homopiperazinyl)-7-methylbenzooxazole (F) (International Publication WO00/31073), which is a benzoxazole derivative having a chemical structure similar to that of the novel urea derivative of the present invention among the known serotonin 5-HT3 receptor partially activating agents, were determined by the following method. The compound of the present invention is mentioned with the example number.
After starvation for 16 hours from one day before the day of the test, beagles (each group consisted of two dogs) were given 300 g of feed pellets and intravenously received cisplatin at a dose of 3 mg/kg 30 minutes later. The test compound was intravenously given 30 minutes before the administration of cisplatin, and frequency and time of emesis were monitored over 6 hours.

Molecules are shown by their SMILES. Values joined by “and” are separate entries in the source; they are usually repeats but may differ in a detail not shown here. Equal entries are not always repeated. Bounds are passed on as bounds.

Consider `CN1CCN(C(=O)Nc2ccc(Cl)c(Cl)c2)CC1` [B, N-(4,5-dichlorophenyl)-4-methylppiperazine-1-carboxyamide, reference compound], for which the “[3H]-GR65630 binding inhibition rate at 1 μM” value at serotonin 5-HT3 receptor [1] was 22%.
On the same count and under the same terms, in the case of `CN1CCN(C(=O)Nc2cc(C(F)(F)F)cc(C(F)(F)F)c2)CC1` [C, N-(3,5-trifluoromethylphenyl)-4-methylpiperazine-1-carboxyamide, reference compound] it was 2%.
Same read-out and setting: to `COc1ccc(Cl)cc1NC(=O)N1CCN(C(=O)OC(C)(C)C)CC1` [E, N-(5-chloro-2-methoxyphenyl)-(4-tert-butyloxycarbonylpiperazine)-1-carboxyamide, reference compound] belongs 5%.
Consider `C[N+]1(C)CCN(C(=O)Nc2cc(Cl)cc(Cl)c2)CC1` [Example 9, 1,1-Dimethyl-4-(3,5-dichlorophenylcarbamoyl)piperazinium iodide], for which the inhibition at 1 µM on serotonin 5-HT3 receptor [1] was determined as 104%.
As to `C=CC[N+]1(C)CCN(C(=O)Nc2cc(Cl)cc(Cl)c2)CC1` [Example 10, 1-Allyl-1-methyl-4-(3,5-dichlorophenylcarbamoyl)piperazinium iodide], the inhibition at 1 µM at serotonin 5-HT3 receptor [1] came out at 105%.
As to `C[N+]1(CCO)CCN(C(=O)Nc2cc(Cl)cc(Cl)c2)CC1.[I-]` [Example 11, 1-(2-Hydroxyethyl)-1-methyl-4-(3,5-dichlorophenylcarbamoyl)-piperazinium iodide], the Activating action at serotonin 5-HT3 receptor [2] (1 μM) is given as 0%; at serotonin 5-HT3 receptor [2] (3 μM), 4%; at serotonin 5-HT3 receptor [2] (10 μM), 14%; on serotonin 5-HT3 receptor [2] (30 μM) it was 31%; on serotonin 5-HT3 receptor [2] (100 μM), 23%. Moreover, the Antagonistic action is 15% at serotonin 5-HT3 receptor [2] (1 μM); 30% at serotonin 5-HT3 receptor [2] (3 μM); 37% on serotonin 5-HT3 receptor [2] (10 μM); 27% at serotonin 5-HT3 receptor [2] (30 μM); 36% at serotonin 5-HT3 receptor [2] (100 μM). For the same compound, the “Serotonin 5-HT3 receptor agonist character (in words)” value at serotonin 5-HT3 receptor [2] (Table 2) is “having both the serotonin 5-HT3 receptor antagonistic action and the serotonin 5-HT3 receptor activating action”. Also, the inhibition at 1 µM at serotonin 5-HT3 receptor [1] was 104%.
For `CCC[N+]1(C)CCN(C(=O)Nc2cc(Cl)cc(Cl)c2)CC1` [Example 12, 1-Propyl-1-methyl-4-(3,5-dichlorophenylcarbamoyl)piperazinium bromide], the inhibition at 1 µM at serotonin 5-HT3 receptor [1] is 98%.
For `C[N+]1(CC2CC2)CCN(C(=O)Nc2cc(Cl)cc(Cl)c2)CC1` [Example 13, 1-Cyclopropylmethyl-1-methyl-4-(3,5-dichlorophenylcarbamoyl)-piperazinium bromide], the inhibition at 1 µM on serotonin 5-HT3 receptor [1] was 98%.
Same read-out and setting: in the case of `C[N+]1(Cc2ccccc2)CCN(C(=O)Nc2cc(Cl)cc(Cl)c2)CC1` [Example 14, 1-Benzyl-1-methyl-4-(3,5-dichlorophenylcarbamoyl)piperazinium bromide] it was 96%; in that of `COc1ccc(Cl)cc1NC(=O)N1CC[N+](C)(C)CC1` [Example 19, 1,1-Dimethyl-4-(2-methoxy-5-chlorophenylcarbamoyl)piperazinium iodide], 94%; in that of `C=CC[N+]1(C)CCN(C(=O)Nc2cc(Cl)ccc2OC)CC1` [Example 20, 1-Allyl-1-methyl-4-(2-methoxy-5-chlorophenylcarbamoyl)piperazinium iodide], 92%.
As for `COc1ccc(Cl)cc1NC(=O)N1CC[N+](C)(CCO)CC1` [Example 21, 1-(2-Hydroxyethyl)-1-methyl-4-(2-methoxy-5-chlorophenylcarbamoyl)-piperazinium iodide], the inhibition at 1 µM at serotonin 5-HT3 receptor [1] amounted to 98%.
In the case of `C[N+]1(CCO)CCN(C(=O)Nc2cc(Cl)cc(Cl)c2)CC1.[Br-]` [Example 30, 1-(2-Hydroxyethyl)-1-methyl-4-(3,5-dichlorophenylcarbamoyl)-piperazinium bromide], in data set [3], the “Emesis at the initial stage of administration (action on the central nerve system)” value was “no emesis was observed at the initial stage”; the “Suppression of cisplatin-induced emesis in dogs (in words)” value is on record as “effectively suppressed”; the “Number of emesis 0 to 120 (minute)” value is given as 0; the “Number of emesis 121 to 360 (minute)” value is 1 and 0. In data set [3], the “Time of initial occurrence” value was 165 min.
`Cc1cc(Cl)cc2nc(N3CCCNCC3)oc12` [F, 5-chloro-2-(1-homopiperazinyl)-7-methylbenzooxazole, reference compound]: in data set [3], the “Time at which emesis occurred after the administration” value is at most 90 min; the “Number of emesis 0 to 120 (minute)” value was 14 and 8; the “Number of emesis 121 to 360 (minute)” value is 15 and 6; the “Time of initial occurrence” value was 88 min and 79 min.

(Values after patent US7485646B2, “Serotonin 5-HT3 receptor agonist” (Research Foundation Itsuu Laboratory, priority 2004, dated 2009).)
